Assay results taken from patent US20220402935A1, “HETEROCYCLIC COMPOUND” (FIMECS, INC., priority 2019, published 2022).
Where a name gives a salt, the structure may show the parent alone.

Assays:
[1] = target: T1, human XIAP_BIR3 domain purified protein (Homo sapiens, UniProt P98170); assay: XIAP binding inhibitory activity (HTRF, b-Smac ligand); conditions: second symbol of cell; read-out: XIAP binding inhibition IC50 value
T1 construct: purchased R & D
In short: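 HTRF competition between compound and C-terminally biotinylated Smac peptide AVPIAQK for His-tagged XIAP BIR3, both diluted to 90 nM before addition, in pH 7.5 HEPES/NaCl/BSA/Triton buffer. Eu-cryptate anti-His and streptavidin-XL665 added, ≥4 h at room temperature in the dark; inhibition % from 665/615 nm ratio versus no-compound wells.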

[2] = target: T2, IRAK-M (Homo sapiens, UniProt Q9Y616); assay: In vitro degradation activity of target protein (IRAK-M ELISA in THP1 cells); format: cell-based; design: host or cells: THP1 cells; conditions: 24 hours, second symbol of cell, read-out: IRAK-M 50% degradation concentration (DC50 value)
T2 sequence (Q9Y616 1-596): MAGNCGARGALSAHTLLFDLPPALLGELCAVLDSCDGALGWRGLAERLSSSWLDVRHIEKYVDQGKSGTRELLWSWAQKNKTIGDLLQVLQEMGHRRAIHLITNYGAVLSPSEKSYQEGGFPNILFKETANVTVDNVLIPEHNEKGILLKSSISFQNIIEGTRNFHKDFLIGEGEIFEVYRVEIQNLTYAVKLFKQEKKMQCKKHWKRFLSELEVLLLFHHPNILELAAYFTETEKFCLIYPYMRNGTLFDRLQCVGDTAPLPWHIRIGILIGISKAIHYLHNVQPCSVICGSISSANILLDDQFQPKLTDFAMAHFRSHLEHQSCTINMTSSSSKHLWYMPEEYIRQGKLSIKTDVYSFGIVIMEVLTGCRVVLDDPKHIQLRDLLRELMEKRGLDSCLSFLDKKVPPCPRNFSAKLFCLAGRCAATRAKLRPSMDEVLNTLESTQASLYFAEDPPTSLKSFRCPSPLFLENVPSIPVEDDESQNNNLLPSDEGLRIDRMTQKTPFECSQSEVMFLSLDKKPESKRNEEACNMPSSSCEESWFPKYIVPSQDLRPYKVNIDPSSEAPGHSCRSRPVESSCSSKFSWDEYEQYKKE
Description: In vitro degradation activities of target protein of the example compounds were evaluated using Enzyme-linked immuno-sorbent assay (ELISA) by the following assay steps. THP1 cells (ATCC, TIB-202) were cultured in RPMI-1640 supplemented with 10% FBS, lx sodium pyruvate, lx HEPES, D-(+)-glucose and 1% penicillin/streptomycin. THP1 cells were seeded at a density of 1×10^6 cells/well in 24-well plate and treated with DMSO control or test compound, and then incubated for 24 hours. The cells were collected and lysed on ice for 30 minutes in lysis buffer (PBS containing 0.1% Triton X-100) containing a protease inhibitor cocktail (Roche, Cat #11836170001). The lysates were sonicated for 30 sec ON/30 sec OFF for ten cycles and centrifuged for 10 minutes at 13k rpm at 4° C. Protein concentrations were determined by the BCA assay (Sigma, Cat #QPBCA-1KT). The ELISA assay was performed using the Human IRAK3/IRAKM/IRAK-M ELISA Kit (LifeSpan BioSciences, Cat #LS-F35271), and the protein levels of IRAK-M were evaluated according to the kit protocol. As to the IRAK-M degradation rate of test compounds, protein degradation rate (%) when the concentration of the test compound is […] described as A≥75%, 50%≤B<75%, 25%≤C<50%, D<25%, or 50% degradation concentration (DC50 value) described as A<0.03 μM, 0.03 μM≤B<0.1 μM, 0.1 μM≤C<0.3 μM, 0.3 μM≤D<1 μM, is shown in the table below.

[3] = target: T2, IRAK-M; assay: IRAK-M binding inhibitory activity (KINOMEscan active site-dependent competitive assay); design: purchased Eurofins Discover X; conditions: for remaining binding at 1 µM: concentration of the test compound 1 μM, first symbol of cell, read-out: IRAK-M binding inhibition activity % Ctrl; for IC50: second symbol of cell, read-out: IRAK-M binding inhibition IC50 value
In short: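 Readout given as % Ctrl, with DMSO as 100% and a control compound as 0%, scaling the test compound signal between them. Binding to human IRAK-M was assessed by KINOMEscan competition at the kinase active site.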

T1 sequence (P98170 252-356 limits assumed): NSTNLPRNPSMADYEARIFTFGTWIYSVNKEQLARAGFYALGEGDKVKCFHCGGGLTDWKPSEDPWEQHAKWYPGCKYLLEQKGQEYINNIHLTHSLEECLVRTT

SMILES | IC50 [1] [nM] | DC50 [2] [nM] | remaining binding at 1 µM [3] [%] | IC50 [3] [nM]
CN[C@@H](C)C(=O)N[C@H](C(=O)N1CCN(C(=O)c2cc3cc(F)c(F)cc3n2CC(=O)N2CCC[C@H]2COc2cc(CN3CCC(Oc4ccnc5ccsc45)CC3)on2)CC1)C1CCCCC1 [Example 25, (S)-N-((S)-1-Cyclohexyl-2-(4-(5,6-difluoro-1-(2-oxo-2-((S)-2-(((5-((4-(thieno[3,2-b]pyridin-7-yloxy)piperidin-1-yl)methyl)isoxazol-3-yl)oxy)methyl)pyrrolidin-1-yl)ethyl)-1H-indole-2-carbonyl)piperazin-1-yl)-2-oxoethyl)-2-(methylamino)propanamide hydrochloride] | 3000 to 30000 | 30 to 100 | < 25 | –
CN[C@@H](C)C(=O)N[C@H](C(=O)N1CCN(C(=O)c2cc3cc(F)ccc3n2CC(=O)N2CCC[C@H]2COc2cc(CN3CCC(Oc4ccnc5ccsc45)CC3)on2)CC1)C1CCCCC1 [Example 26, (S)-N-((S)-1-Cyclohexyl-2-(4-(5-fluoro-1-(2-oxo-2-((S)-2-(((5-((4-(thieno[3,2-b]pyridin-7-yloxy)piperidin-1-yl)methyl)isoxazol-3-yl)oxy)methyl)pyrrolidin-1-yl)ethyl)-1H-indole-2-carbonyl)piperazin-1-yl)-2-oxoethyl)-2-(methylamino)propanamide] | 3000 to 30000 | < 30 | – | 300 to 1000
CN[C@@H](C)C(=O)N[C@H](C(=O)N1CCN(C(=O)c2cc3cc(F)c(F)cc3n2CC(=O)N2CCC[C@H]2COc2cc(CN3CCC(Oc4ccnc5ccsc45)CC3)on2)[C@@H](C)C1)C1CCCCC1 [Example 27, (S)-N-((S)-1-Cyclohexyl-2-((S)-4-(5,6-difluoro-1-(2-oxo-2-((S)-2-(((5-((4-(thieno[3,2-b]pyridin-7-yloxy)piperidin-1-yl)methyl)isoxazol-3-yl)oxy)methyl)pyrrolidin-1-yl)ethyl)-1H-indole-2-carbonyl)-3-methylpiperazin-1-yl)-2-oxoethyl)-2-(methylamino)propanamide] | 3000 to 30000 | < 30 | – | 300 to 1000
CN[C@@H](C)C(=O)N[C@H](C(=O)N1CCN(C(=O)c2cc3cc(F)ccc3n2CC(=O)N2CCC[C@H]2COc2cc(CN3CCC(Oc4ccnc5ccsc45)CC3)on2)[C@@H](C)C1)C1CCCCC1 [Example 28, (S)-N-((S)-1-Cyclohexyl-2-((S)-4-(5-fluoro-1-(2-oxo-2-((S)-2-(((5-((4-(thieno[3,2-b]pyridin-7-yloxy)piperidin-1-yl)methyl)isoxazol-3-yl)oxy)methyl)pyrrolidin-1-yl)ethyl)-1H-indole-2-carbonyl)-3-methylpiperazin-1-yl)-2-oxoethyl)-2-(methylamino)propanamide] | 3000 to 30000 | < 30 | – | 300 to 1000
CN[C@@H](C)C(=O)N[C@H](C(=O)N1CCN(C(=O)c2c(Cl)c3ccccc3n2CC(=O)N(C)CCOCCOCCOCCOc2cc(CN3CCC(Oc4ccnc5ccsc45)CC3)on2)CC1)C1CCCCC1 [Example 32, (S)-N-((S)-2-(4-(3-chloro-1-(3-methyl-2-oxo-14-((5-((4-(thieno[3,2-b]pyridin-7-yloxy)piperidin-1-yl)methyl)isoxazol-3-yl)oxy)-6,9,12-trioxa-3-azatetradecyl)-1H-indole-2-carbonyl)piperazin-1-yl)-1-cyclohexyl-2-oxoethyl)-2-(methylamino)propanamide] | 3000 to 30000 | 300 to 1000 | < 25 | –

Next, values leading:

IC50 [1] [nM] | DC50 [2] [nM] | remaining binding at 1 µM [3] [%] | IC50 [3] [nM] | SMILES
3000 to 30000 | 300 to 1000 | < 25 | – | CN[C@@H](C)C(=O)N[C@H](C(=O)N1CCN(C(=O)c2cc3cc(F)c(F)cc3n2CCOCCOCCOCCOc2cc(CN3CCC(Oc4ccnc5ccsc45)CC3)on2)CC1)C1CCCCC1 [Example 29, (S)-N-((S)-1-cyclohexyl-2-(4-(5,6-difluoro-1-(2-(2-(2-(2-((5-((4-(thieno[3,2-b]pyridin-7-yloxy)piperidin-1-yl)methyl)isoxazol-3-yl)oxy)ethoxy)ethoxy)ethoxy)ethyl)-1H-indole-2-carbonyl)piperazin-1-yl)-2-oxoethyl)-2-(methylamino)propanamide]
3000 to 30000 | 300 to 1000 | < 25 | – | CN[C@@H](C)C(=O)N[C@H](C(=O)N1CCN(C(=O)c2c(C)c3cc(F)ccc3n2CC(=O)N(C)CCOCCOCCOCCOc2cc(CN3CCC(Oc4ccnc5ccsc45)CC3)on2)CC1)C1CCCCC1 [Example 33, (S)-N-((S)-1-cyclohexyl-2-(4-(5-fluoro-3-methyl-1-(3-methyl-2-oxo-14-((5-((4-(thieno[3,2-b]pyridin-7-yloxy)piperidin-1-yl)methyl)isoxazol-3-yl)oxy)-6,9,12-trioxa-3-azatetradecyl)-1H-indole-2-carbonyl)piperazin-1-yl)-2-oxoethyl)-2-(methylamino)propanamide]
3000 to 30000 | 300 to 1000 | 25 to 50 | – | CN[C@@H](C)C(=O)N[C@H](C(=O)N1CCN(C(=O)c2c(Cl)c3cc(F)ccc3n2CC(=O)N(C)CCOCCOCCOCCOc2cc(CN3CCC(Oc4ccnc5ccsc45)CC3)on2)CC1)C1CCCCC1 [Example 34, (S)-N-((S)-2-(4-(3-chloro-5-fluoro-1-(3-methyl-2-oxo-14-((5-((4-(thieno[3,2-b]pyridin-7-yloxy)piperidin-1-yl)methyl)isoxazol-3-yl)oxy)-6,9,12-trioxa-3-azatetradecyl)-1H-indole-2-carbonyl)piperazin-1-yl)-1-cyclohexyl-2-oxoethyl)-2-(methylamino)propanamide]
3000 to 30000 | 300 to 1000 | 25 to 50 | – | CN[C@@H](C)C(=O)N[C@H](C(=O)N1CCN(C(=O)c2c(C)c3ccccc3n2CC(=O)N(C)CCOCCOCCOCCOc2cc(CN3CCC(Oc4ccnc5ccsc45)CC3)on2)CC1)C1CCCCC1 [Example 35, (S)-N-((S)-1-cyclohexyl-2-(4-(3-methyl-1-(3-methyl-2-oxo-14-((5-((4-(thieno[3,2-b]pyridin-7-yloxy)piperidin-1-yl)methyl)isoxazol-3-yl)oxy)-6,9,12-trioxa-3-azatetradecyl)-1H-indole-2-carbonyl)piperazin-1-yl)-2-oxoethyl)-2-(methylamino)propanamide]
3000 to 30000 | 300 to 1000 | 25 to 50 | – | CN[C@@H](C)C(=O)N[C@H](C(=O)N1CCN(C(=O)c2c(F)c3cc(F)ccc3n2CC(=O)N(C)CCOCCOCCOCCOc2cc(CN3CCC(Oc4ccnc5ccsc45)CC3)on2)CC1)C1CCCCC1 [Example 36, (S)-N-((S)-1-cyclohexyl-2-(4-(3,5-difluoro-1-(3-methyl-2-oxo-14-((5-((4-(thieno[3,2-b]pyridin-7-yloxy)piperidin-1-yl)methyl)isoxazol-3-yl)oxy)-6,9,12-trioxa-3-azatetradecyl)-1H-indole-2-carbonyl)piperazin-1-yl)-2-oxoethyl)-2-(methylamino)propanamide]
3000 to 30000 | 300 to 1000 | ≥ 75 | – | CN[C@@H](C)C(=O)N[C@H](C(=O)N1CCN(C(=O)c2c(F)c3ccccc3n2CC(=O)N(C)CCOCCOCCOCCOc2cc(CN3CCC(Oc4ccnc5ccsc45)CC3)on2)CC1)C1CCCCC1 [Example 37, (S)-N-((S)-1-cyclohexyl-2-(4-(3-fluoro-1-(3-methyl-2-oxo-14-((5-((4-(thieno[3,2-b]pyridin-7-yloxy)piperidin-1-yl)methyl)isoxazol-3-yl)oxy)-6,9,12-trioxa-3-azatetradecyl)-1H-indole-2-carbonyl)piperazin-1-yl)-2-oxoethyl)-2-(methylamino)propanamide]
